These results are taken from article PMC9120478 (Nature Communications, 2022).

For series [1] the following is noted: no reference given; cited from earlier work.
The target of series [2] is T1, TRPV3-I663W (Mus musculus, UniProt Q8K424, I663W).
T1 construct: expressed in transfected cells; host or cells: HEK 293 S GnTI- cells (baculovirus transduction)
T1 sequence (Q8K424 1-791 I663W): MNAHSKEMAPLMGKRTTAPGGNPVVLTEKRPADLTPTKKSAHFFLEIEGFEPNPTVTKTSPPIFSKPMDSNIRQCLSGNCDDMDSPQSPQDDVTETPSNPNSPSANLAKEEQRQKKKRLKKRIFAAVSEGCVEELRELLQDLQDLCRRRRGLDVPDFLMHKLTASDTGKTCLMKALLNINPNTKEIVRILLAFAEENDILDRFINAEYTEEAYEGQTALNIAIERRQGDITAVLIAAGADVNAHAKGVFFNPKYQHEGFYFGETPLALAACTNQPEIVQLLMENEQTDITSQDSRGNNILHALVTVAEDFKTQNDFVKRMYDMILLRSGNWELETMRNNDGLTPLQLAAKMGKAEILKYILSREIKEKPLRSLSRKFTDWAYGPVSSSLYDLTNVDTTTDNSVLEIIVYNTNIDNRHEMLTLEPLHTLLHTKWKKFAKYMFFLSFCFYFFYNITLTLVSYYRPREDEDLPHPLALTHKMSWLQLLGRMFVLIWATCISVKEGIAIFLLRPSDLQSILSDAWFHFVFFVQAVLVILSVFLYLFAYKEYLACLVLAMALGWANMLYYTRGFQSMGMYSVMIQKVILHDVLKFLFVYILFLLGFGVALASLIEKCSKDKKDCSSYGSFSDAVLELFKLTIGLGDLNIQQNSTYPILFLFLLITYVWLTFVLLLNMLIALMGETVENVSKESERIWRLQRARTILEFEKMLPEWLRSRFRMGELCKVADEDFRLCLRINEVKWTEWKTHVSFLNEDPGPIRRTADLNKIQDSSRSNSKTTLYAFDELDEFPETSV
Briefly: Fura-2 ratiometric Ca2+ uptake, inhibition of 2-APB-evoked response. In kind it is cell-based. The conditions noted are these: n = 3. The text has this:
The portal site in TRPV3 has not been previously shown to bind small-molecule inhibitors. This site, however, was originally proposed to be an entry pathway for local anesthetics to the pore of sodium channels[47]–[49] and found to accommodate cannabidiol in TRPV2, a closely-related representative of the vanilloid subfamily of TRP channels. […] We concluded that the Y594A mutation altered gating properties of TRPV3 and excluded this mutant from further analysis.
GFP-free C-terminally strep-tagged wild-type TRPV3, TRPV3-Y564A, TRPV3-Y594A, TRPV3-F633A, TRPV3-I663W, and TRPV3-F666A were expressed in HEK 293 S GnTI^− cells as previously described[41],[42],[53]. In short, 48 h after transduction, 1-ml aliquots of cell suspension were collected by centrifugation at 550 g for 5 min using an Eppendorf 5424 centrifuge. The cells were resuspended in the pre-warmed modified HEPES-buffered saline (HBS) containing 118 mM NaCl, 4.8 mM KCl, 1 mM MgCl2, 5 mM D-glucose, and 10 mM HEPES pH 7.4 and 5 μg/ml Fura-2 AM (Thermo Fisher Scientific) and incubated for 45 min at 37 °C. The Fura-2-loaded cells were then centrifuged for 5 min at 550 g, resuspended in the pre-warmed, modified HBS and incubated again for 30 min at 37 °C in the dark. The cells were subsequently pelleted and washed twice in the modified HBS. The washed cell pellets were kept on ice in the dark before taking an aliquot for fluorescence measurements. […] We used the lower CaCl2 concentration than before[42],[28] (2.5 mM) to minimize non-specific effects, which often appeared as a drift in the Fura-2 signal at high Ca^2+ concentration, presumably due to cell death as a result of calcium overload. Fluorescence measurements were conducted using a QuantaMaster 40 spectrofluorometer (Photon Technology International) at room temperature in a quartz cuvette under constant stirring. After 60 s since the beginning, the recording was paused and 2-APB was added. After the addition of 2-APB, the recording was continued for the additional 140 s. Changes in intracellular Ca^2+ were measured by taking the ratio of fluorescence emitted at 510 nm at the excitation wavelength of 340 nm and 380 nm. […] The data were processed using Origin 9.0 (OriginLab) software.

SMILES strings stand for the structures.

As to `CCCCOc1ccc(C(=O)CCN2CCCCC2)cc1` [dyclonine, 1-(4-butoxyphenyl)-3-piperidin-1-ylpropan-1-one], the pKa in series [1] is listed as 8.36. In addition, the 50% inhibitory concentration (IC50) in series [2] (200 µM 2-APB, read-out: IC50, inhibition of I663W mutant) came to 31.5 ± 1.6 µM. The “nHill of inhibition curve, I663W” value in series [2] (logistic fit) is on record as 1.63 ± 0.07.
